Assay: recombinant UMI read abundance after kanamycin selection (control-corrected) (log10(CPM+1)); higher = more efficient recombination; extreme values may be limits of the assay; sequences stand for … in AGTGCAGAGAAAATCGGCCAGTTTTCTCTGCCTGCAGTCCGCATGCCGTGGGACCCCTTGGGTTCTAACCTGTTGCCTAGATTTATGCAGCGGACTGCCTTTCTCCCAAAGTGATAAACCGG…AGGTTGGTTTCACT; site = the 11-nt donor
Procedure, shortened: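 Counts of recombinant UMIs were reported as log10(CPM+1). Before that, they were converted to CPM, averaged over replicates and scaled using control-derived factors. They came from PCR across the donor–target junction after Escherichia coli carrying the pair library and target plasmid was plated on IPTG (0.07 mM) plus kanamycin, or unselected, in two replicates each.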
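Note: IS621 bridge recombinase in Escherichia coli cells against a fixed T5 target plasmid.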

Row | Sequence | recombinant UMI read abundance (log10)
1 | TATACACCATGGACCGGTTTTCCCGGTAATCCGTATTTGAC (site TGTACACCTGT) | 0
2 | TATACACCATGGACCGGTTTTCCCGGTAATCCGTATTTGAC (site TTTACACCTGT) | 0
3 | TATATCTCATGGACCGGTTTTCCCGGTAATCCGTATTTGAA (site TATATCTCTTT) | 0.835
4 | TATATCTCATGGACCGGTTTTCCCGGTAATCCGTATTTGTA (site TATATCTCTTA) | 1.93
5 | TATCCTCCATGGACCGGTTTTCCCGGTAATCCGTATTTGTT (site TATCCTCCTAA) | 0.0195
6 | TATCCTTCATGGACCGGTTTTCCCGGTAATCCGTATTTGGT (site TAACCTTCTAC) | 0.00593
7 | TATCCTTCATGGACCGGTTTTCCCGGTAATCCGTATTTGGT (site TACCCTTCTAC) | 0.0066
8 | TATCCTTCATGGACCGGTTTTCCCGGTAATCCGTATTTGGT (site TAGCCTTCTAC) | 0.0208
9 | TATCCTTCATGGACCGGTTTTCCCGGTAATCCGTATTTGGT (site TATCCTTCTAC) | 0.31
10 | TATCGATCATGGACCGGTTTTCCCGGTAATCCGTATTTGAC (site TATCGATCTGT) | 1.86
11 | TATCTAGCATGGACCGGTTTTCCCGGTAATCCGTATTTGAA (site TAACTAGCTTT) | 0.0105
12 | TATCTAGCATGGACCGGTTTTCCCGGTAATCCGTATTTGAA (site TACCTAGCTTT) | 0.131
13 | TATCTAGCATGGACCGGTTTTCCCGGTAATCCGTATTTGAA (site TAGCTAGCTTT) | 0.00935
14 | TATCTAGCATGGACCGGTTTTCCCGGTAATCCGTATTTGAA (site TATCTAGCTTT) | 0.502
15 | TATCTATCATGGACCGGTTTTCCCGGTAATCCGTATTTGTC (site TATCTATCTGA) | 1.59
16 | TATCTCGCATGGACCGGTTTTCCCGGTAATCCGTATTTGCA (site TATCTCGCTTG) | 0.374
17 | TATCTGGCATGGACCGGTTTTCCCGGTAATCCGTATTTGTG (site TATATGGCTCA) | 0.0189
18 | TATCTGGCATGGACCGGTTTTCCCGGTAATCCGTATTTGTG (site TATCTGGCTCA) | 0.0196
19 | TATCTGGCATGGACCGGTTTTCCCGGTAATCCGTATTTGTG (site TATGTGGCTCA) | 0.00259
20 | TATCTGGCATGGACCGGTTTTCCCGGTAATCCGTATTTGTG (site TATTTGGCTCA) | 0.00973
21 | TATGCGGCATGGACCGGTTTTCCCGGTAATCCGTATTTGAT (site TATGCGGCTAT) | 0.581
22 | TATGCTACATGGACCGGTTTTCCCGGTAATCCGTATTTGGC (site TATGCTACTGC) | 0.253
23 | TATGGGCCATGGACCGGTTTTCCCGGTAATCCGTATTTGCT (site TATGGGCCTAG) | 0
24 | TATGGTACATGGACCGGTTTTCCCGGTAATCCGTATTTGGC (site TATGGTACTGC) | 1.67
25 | TATGTACCATGGACCGGTTTTCCCGGTAATCCGTATTTGGT (site TATGTACCTAC) | 0.011

Row | Sequence | recombinant UMI read abundance (log10)
26 | TATGTCTCATGGACCGGTTTTCCCGGTAATCCGTATTTGCC (site TATGTCTCTGG) | 2.6
27 | TATTAGGCATGGACCGGTTTTCCCGGTAATCCGTATTTGTG (site TATTAGGCTCA) | 0.459
28 | TATTAGGCATGGACCGGTTTTCCCGGTAATCCGTATTTGTG (site TATTCGGCTCA) | 0.00717
29 | TATTAGGCATGGACCGGTTTTCCCGGTAATCCGTATTTGTG (site TATTGGGCTCA) | 0
30 | TATTAGGCATGGACCGGTTTTCCCGGTAATCCGTATTTGTG (site TATTTGGCTCA) | 0.0156
31 | TATTATCCATGGACCGGTTTTCCCGGTAATCCGTATTTGCT (site AATTATCCTAG) | 0.494
32 | TATTATCCATGGACCGGTTTTCCCGGTAATCCGTATTTGCT (site CATTATCCTAG) | 0
33 | TATTATCCATGGACCGGTTTTCCCGGTAATCCGTATTTGCT (site GATTATCCTAG) | 0
34 | TATTATCCATGGACCGGTTTTCCCGGTAATCCGTATTTGCT (site TATTATCCTAG) | 0.622
35 | TATTATGCATGGACCGGTTTTCCCGGTAATCCGTATTTGGA (site AATTATGCTTC) | 0.364
36 | TATTATGCATGGACCGGTTTTCCCGGTAATCCGTATTTGGA (site CATTATGCTTC) | 0.525
37 | TATTATGCATGGACCGGTTTTCCCGGTAATCCGTATTTGGA (site GATTATGCTTC) | 0.00418
38 | TATTATGCATGGACCGGTTTTCCCGGTAATCCGTATTTGGA (site TATTATGCTTC) | 0.177
39 | TATTCGCCATGGACCGGTTTTCCCGGTAATCCGTATTTGGG (site TATTCGCCTCC) | 0.0547
40 | TATTGACCATGGACCGGTTTTCCCGGTAATCCGTATTTGCG (site TATTGACCTCG) | 0.00685
41 | TATTGGACATGGACCGGTTTTCCCGGTAATCCGTATTTGAC (site AATTGGACTGT) | 0
42 | TATTGGACATGGACCGGTTTTCCCGGTAATCCGTATTTGAC (site CATTGGACTGT) | 0.701
43 | TATTGGACATGGACCGGTTTTCCCGGTAATCCGTATTTGAC (site GATTGGACTGT) | 0.0156
44 | TATTGGACATGGACCGGTTTTCCCGGTAATCCGTATTTGAC (site TATTGGACTGT) | 1.68
45 | TATTTCCCATGGACCGGTTTTCCCGGTAATCCGTATTTGTG (site TATTTCCCTCA) | 0.213
46 | TATTTCGCATGGACCGGTTTTCCCGGTAATCCGTATTTGTG (site TATTTAGCTCA) | 0.00938
47 | TATTTCGCATGGACCGGTTTTCCCGGTAATCCGTATTTGTG (site TATTTCGCTCA) | 0.00881
48 | TATTTCGCATGGACCGGTTTTCCCGGTAATCCGTATTTGTG (site TATTTGGCTCA) | 0
49 | TATTTCGCATGGACCGGTTTTCCCGGTAATCCGTATTTGTG (site TATTTTGCTCA) | 0.00403
50 | TATTTGCCATGGACCGGTTTTCCCGGTAATCCGTATTTGTG (site TATTTGACTCA) | 0.0205

Row | Sequence | recombinant UMI read abundance (log10)
51 | TATTTGCCATGGACCGGTTTTCCCGGTAATCCGTATTTGTG (site TATTTGCCTCA) | 0.0197
52 | TATTTGCCATGGACCGGTTTTCCCGGTAATCCGTATTTGTG (site TATTTGGCTCA) | 0.00691
53 | TATTTGCCATGGACCGGTTTTCCCGGTAATCCGTATTTGTG (site TATTTGTCTCA) | 0.0226
54 | TATTTGGCATGGACCGGTTTTCCCGGTAATCCGTATTTGAG (site TATTTGGCTCA) | 0.0138
55 | TATTTGGCATGGACCGGTTTTCCCGGTAATCCGTATTTGAG (site TATTTGGCTCC) | 0.00558
56 | TATTTGGCATGGACCGGTTTTCCCGGTAATCCGTATTTGAG (site TATTTGGCTCG) | 0.012
57 | TATTTGGCATGGACCGGTTTTCCCGGTAATCCGTATTTGAG (site TATTTGGCTCT) | 0.00868
58 | TATTTGGCATGGACCGGTTTTCCCGGTAATCCGTATTTGTA (site TATTTGGCTAA) | 0.00533
59 | TATTTGGCATGGACCGGTTTTCCCGGTAATCCGTATTTGTA (site TATTTGGCTCA) | 0.0148
60 | TATTTGGCATGGACCGGTTTTCCCGGTAATCCGTATTTGTA (site TATTTGGCTGA) | 0
61 | TATTTGGCATGGACCGGTTTTCCCGGTAATCCGTATTTGTA (site TATTTGGCTTA) | 0.00725
62 | TATTTGGCATGGACCGGTTTTCCCGGTAATCCGTATTTGTT (site TATTTGGCTAA) | 0.17
63 | TATTTGGCATGGACCGGTTTTCCCGGTAATCCGTATTTGTT (site TATTTGGCTCA) | 0.0085
64 | TATTTGGCATGGACCGGTTTTCCCGGTAATCCGTATTTGTT (site TATTTGGCTGA) | 0
65 | TATTTGGCATGGACCGGTTTTCCCGGTAATCCGTATTTGTT (site TATTTGGCTTA) | 0
66 | TCAAATGCATGGACCGGTTTTCCCGGTAATCCGTATTTGCC (site TCAAATGCTGG) | 0
67 | TCAAGGACATGGACCGGTTTTCCCGGTAATCCGTATTTGCA (site TCAAGGACTTG) | 1.86
68 | TCAAGGCCATGGACCGGTTTTCCCGGTAATCCGTATTTGGT (site TCAAGGCCTAC) | 0.00348
69 | TCACCGACATGGACCGGTTTTCCCGGTAATCCGTATTTGGA (site TCACCGACTTC) | 0.0438
70 | TCACGCCCATGGACCGGTTTTCCCGGTAATCCGTATTTGCT (site TCACGCCCTAG) | 2.1
71 | TCAGAGACATGGACCGGTTTTCCCGGTAATCCGTATTTGTG (site TCAGAGACTCA) | 1.03
72 | TCAGAGACATGGACCGGTTTTCCCGGTAATCCGTATTTGTG (site TCAGAGACTCC) | 0.353
73 | TCAGAGACATGGACCGGTTTTCCCGGTAATCCGTATTTGTG (site TCAGAGACTCG) | 1.44
74 | TCAGAGACATGGACCGGTTTTCCCGGTAATCCGTATTTGTG (site TCAGAGACTCT) | 0.205
75 | TCAGAGCCATGGACCGGTTTTCCCGGTAATCCGTATTTGCG (site TCAGAGACTCG) | 0.00993
